From patent US20250152719A1, “FUSED IMIDE DERIVATIVE” (Chia Tai Tianqing Pharmaceutical Group Co., Ltd., priority 2021, published 2025)

Key:
BTK = BTK (Homo sapiens (Human), UniProt Q06187); test: BTK degradation in OCI-LY10 cells (Total-BTK HTRF kit); format: cell-based; conditions: 24 (or 6) h incubation; for DC50: DC50 = concentration when degradation rate reaches 50%, read-out: OCI-LY10 cell BTK degradation DC50; for Dmax: OCI-Ly10, OCI-LY10 cells
Summary of the method: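 OCI-LY10 cells seeded overnight, then treated with compound at 100 nM-0.098 nM in duplicate for 24 (or 6) h. Lysates probed by Total-BTK HTRF (d2/Eu cryptate antibodies, overnight, room temperature), read at 665/620 nm; DC50 and Dmax from four-parameter dose-response fits.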

TMD-8 xenograft tumors = test: In vivo drug efficacy, TMD-8 mouse subcutaneous xenograft tumors; design: species or system NOD-SCID mice; conditions: 30 mg/kg, qd, i.g.
Experimental: TMD-8 mouse subcutaneous xenograft tumors: TMD-8 (WT) cells at a concentration of 1×10^8/mL were inoculated under aseptic conditions into the right side armpit of NOD-SCID mice at 0.1 mL/mouse. After subcutaneous grafting, the animals were divided into groups with 6 animals in each group when the tumor volume reached about 188 mm^3 (or 200 mm^3):
model group: vehicle, 6 mice; compound administration groups: 30 mg/kg, qd, i.g., 6 mice.
The vehicle or the test compound was intragastrically given at a volume of 4 mL/kg, once daily for 16 consecutive days. The tumor volume was measured 2-3 times a week, and meanwhile, the mice were weighed and the data were recorded; the general behaviors of the animals were observed every day. After all dosing was complete, the animals were sacrificed on day 17, and the tumors were removed and weighed.
The tumor volume and the tumor growth inhibition were calculated using the following formulae:
Tumor volume (TV)=(Length×Width^2)/2.
Tumor growth inhibition (TGI)=(1−tumor weight of treatment group/tumor weight of model group)×100%.

[1] = In vitro liver microsomal stability, mouse; conditions: 0.5 mg/mL microsomes, NADPH, 37° C., 1 h
Experimental: (§1) Liver microsome incubation samples were prepared by mixing a PBS buffer (pH 7.4), a liver microsome solution (0.5 mg/mL), a test compound, and an NADPH+MgCl2 solution and incubated at 37° C. and 300 rpm for 1 h. Zero-hour samples were prepared by mixing a PBS buffer (pH 7.4), a liver microsome solution (0.5 mg/mL), and a test compound. An acetonitrile solution containing an internal standard was added to the samples, and supernatants were prepared by protein precipitation, diluted, and then assayed by LC/MS/MS.

TMD8-BTK(C481S) cells = test: Inhibitory activity on TMD8-BTK(C481S) cell proliferation (CCK-8); format: cell-based; conditions: 72 h, 72 h incubation
Summary of the method: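 Cells seeded at 8×10^4 cells/mL, incubated overnight, then treated in duplicate with compounds at 5000 nM-0.31 nM for 72 h. Viability by CCK-8 (4 h, absorbance 450 nm); IC50 from four-parameter dose-response fits.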

[2] = test system: OCI-LY10-BTK(C481S) cells; test: Inhibitory activity on OCI-LY10-BTK(C481S) cell proliferation (CCK-8); format: cell-based; conditions: 72 h incubation, IC50 per method, unit inferred
Experimental: OCI-LY10(C481S) cells in the logarithmic growth phase were collected and added to a centrifuge tube, adjusted to a cell density of 5×10^4 cells/mL, and seeded in a 96-well plate (100 μL/well). Meanwhile, compounds were added using a nanoliter pipettor such that the final concentrations of the compounds were 5000 nM-0.31 nM; the addition was performed in duplicate, and meanwhile, a control was set. After another 72 h of incubation in the cell incubator, the detection reagent CCK-8 (manufacturer: Dojindo Laboratories, Beijing; 10 μL/well) was added. After 3 h of incubation in the cell incubator, absorbance values were detected at 450 nm using a PerkinElmer Envision microplate reader, the four-parameter analysis was performed, the dose-response curves were fit, and IC50 was calculated.

[3] = In vitro liver microsomal stability, human; format: in vitro ADME; conditions: 0.5 mg/mL microsomes, NADPH, 37° C., 1 h
Experimental: as §1

Chain of BTK (Q06187 whole entry): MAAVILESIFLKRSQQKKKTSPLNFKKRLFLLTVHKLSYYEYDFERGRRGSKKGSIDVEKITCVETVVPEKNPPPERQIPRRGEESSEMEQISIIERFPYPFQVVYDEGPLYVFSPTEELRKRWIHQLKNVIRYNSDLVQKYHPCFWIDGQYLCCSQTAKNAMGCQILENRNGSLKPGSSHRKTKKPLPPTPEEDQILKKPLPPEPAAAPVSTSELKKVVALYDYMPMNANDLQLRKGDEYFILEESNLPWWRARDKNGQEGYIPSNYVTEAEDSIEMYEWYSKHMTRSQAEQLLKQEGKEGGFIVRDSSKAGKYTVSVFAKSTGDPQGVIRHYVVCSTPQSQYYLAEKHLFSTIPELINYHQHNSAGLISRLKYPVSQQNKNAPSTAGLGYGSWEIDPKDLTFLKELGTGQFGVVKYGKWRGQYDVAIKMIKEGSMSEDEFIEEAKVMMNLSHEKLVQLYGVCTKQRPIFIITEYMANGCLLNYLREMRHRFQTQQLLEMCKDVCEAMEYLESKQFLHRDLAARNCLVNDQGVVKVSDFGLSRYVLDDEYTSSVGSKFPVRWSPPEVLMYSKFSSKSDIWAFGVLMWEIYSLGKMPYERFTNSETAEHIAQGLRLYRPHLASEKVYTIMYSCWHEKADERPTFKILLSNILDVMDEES

DC50 (BTK; OCI-LY10 cells) [nM] | Dmax (BTK; maximum degradation rate) [%] | Mouse liver microsome Residuals at 60 min [1] [%] | IC50 ([2]; 72 h) [nM] | Human liver microsome Residuals at 60 min [3] [%] | BTK degradation in OCI-LY10 cells Dmax (BTK; OCI-LY10 cells, maximum degradation rate) [%] | IC50 [2] [nM] | SMILES | TGI d 17 (TMD-8 xenograft tumors; 16 days, tumor weight on day 17) [%] | TV on d 0 Mean ± SD (TMD-8 xenograft tumors; day 0 (baseline at grouping)) [mm^3] | TV on d 12 Mean ± SD (TMD-8 xenograft tumors; day 12) [mm^3] | TV on d 15 Mean ± SD (TMD-8 xenograft tumors; day 15) [mm^3] | IC50 (TMD8-BTK(C481S) cells) [nM]
< 0.098 | 99 | 65.4 | – | – | – | – | CN1CCN([C@@H]2CCCN(c3cnc(C(N)=O)c(Nc4ccc(C5CCN(C6CN(c7ccc8c(C9CCC(=O)NC9=O)noc8c7)C6)CC5)cc4)n3)C2)C1=O (stereo partly shown) [Compound 10] | 97.5 | 226 ± 29 | 235 ± 57 | 209 ± 60 | 2.4
< 0.098 | 97 | – | 0.062 | 56.0 | – | – | CN1CCN([C@@H]2CCCN(c3cnc(C(N)=O)c(Nc4ccc(N5CCC(CN6CCc7ccc8c(C9CCC(=O)NC9=O)noc8c7CC6)CC5)cc4)n3)C2)C1=O (stereo partly shown) [Compound 27] | – | – | – | – | –
– | – | 71.0 | – | 55.0 | >90 | 0.37 | CN1CCN([C@@H]2CCCN(c3cnc(C(N)=O)c(Nc4ccc(C5CCC(N6Cc7ccc8c(C9CCC(=O)NC9=O)noc8c7C6)CC5)cc4)n3)C2)C1=O (stereo partly shown) [Compound 33] | – | – | – | – | –
